In patent publication US9227971B2, “Pyrazolo[1,5-a]pyrimidine compounds as mTOR inhibitors” (Merck Sharp & Dohme Corp., priority 2010, dated 2016) one finds IC50 data, which are given here for 18 molecules.

The test system of experiment [1] is phosphorylated AKT Ser473 (pAKT S473), mTORC2 activity, PC3 cells. Put plainly: mTOR target engagement assay, immunofluorescent cell-based, pAKT S473 readout (mTORC2 activity). The essentials:
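After blocking, cells were stained overnight at 4 °C with anti-pAKT S473 antibody, then a fluorescent secondary; inhibition was read as reduced fluorescence intensity.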

The subject of experiment [2] is phosphorylated 4E-BP1 Thr37/46 (p4E-BP1 Thr37/46), mTORC1 activity, PC3 cells. Put plainly: mTOR target engagement assay, immunofluorescent cell-based, p4E-BP1 Thr37/46 readout (mTORC1 activity). Particulars: read-out: p4E-BP1 Thr37/46 IC50. The essentials:
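Read-out is fluorescence intensity of immunostained p4E-BP1 Thr37/46 in fixed PC3 cells, fitted to a logistic curve for IC50 with DMSO-only wells as top. Cells had been exposed to serial compound dilutions for ninety minutes at 37° C in 5% FBS medium with 0.25% DMSO.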

Where [3] appears, read: Homo sapiens, PC-3, Table 6-1, PC3 cells.
Where [4] appears, read: Homo sapiens, PC-3, PC3 cells, compound treatment ninety minutes at 37° C.
The mark [5] stands for this setting: Homo sapiens, PC-3, Table 3-1, PC3 cells.

Where two headings read alike, the source gives them in different places.

Turning to `CC(=O)c1c([C@@H]2C[C@H]3CC[C@@H](C2)N3C(=O)CO)nc2c(-c3ccc(-c4ncc[nH]4)c(F)c3)cnn2c1N` [Compound 6.40, 1-((1R,3s,5S)-3-(6-acetyl-7-amino-3-(3-fluoro-4-(1H-imidazol-2-yl)phenyl)pyrazolo[1,5-a]pyrimidin-5-yl)-8-azabicyclo[3.2.1]octan-8-yl)-2-hydroxyethanone], the IC50 in experiment [1] (setting [3]) and in experiment [2] (setting [3]) was 1 to 100 nM in each case.

Turning to `CC(=O)c1c([C@@H]2C[C@H]3CC[C@@H](C2)N3C(=O)c2cc(N)n[nH]2)nc2c(-c3ccc(C(O)(C(F)(F)F)C(F)(F)F)nc3)cnn2c1N` [Compound 7.79, 1-(7-amino-5-((1R,3s,5S)-8-(3-amino-1H-pyrazole-5-carbonyl)-8-azabicyclo[3.2.1]octan-3-yl)-3-(6-(1,1,1,3,3,3-hexafluoro-2-hydroxypropan-2-yl)pyridin-3-yl)pyrazolo[1,5-a]pyrimidin-6-yl)ethanone], the IC50 in experiment [1] (Homo sapiens, PC-3, PC3 cells) lay in the range of 100 to 1000 nM; in experiment [2] (Homo sapiens, PC-3, PC3 cells), 100 to 1000 nM.

`N#Cc1c([C@@H]2C[C@H]3CC[C@@H](C2)N3C(=O)CO)nc2c(-c3ccc(-c4ccccc4)nc3)cnn2c1N` [Compound 5.1, 7-amino-5-((1R,3s,5S)-8-(2-hydroxyacetyl)-8-azabicyclo[3.2.1]octan-3-yl)-3-(6-phenylpyridin-3-yl)pyrazolo[1,5-a]pyrimidine-6-carbonitrile]: the IC50 in experiment [1] (setting [4]) was 1 to 100 nM; in experiment [2] (setting [4]), 100 to 1000 nM.

For `CCC(O)(CC)c1ccc(-c2cnn3c(N)c(C(C)=O)c([C@@H]4C[C@H]5CC[C@@H](C4)N5C(=O)c4nnc[nH]4)nc23)cn1` [Compound 1.1.85, 1-(5-((1R,3s,5S)-8-(4H-1,2,4-triazole-3-carbonyl)-8-azabicyclo[3.2.1]octan-3-yl)-7-amino-3-(6-(3-hydroxypentan-3-yl)pyridin-3-yl)pyrazolo[1,5-a]pyrimidin-6-yl)ethanone], the IC50 in experiment [1] (setting [4]) and in experiment [2] (setting [4]) was 1000 to 10000 nM each time.

With `CC(=O)c1c([C@@H]2C[C@H]3CC[C@@H](C2)N3C(=O)c2cc(N)n[nH]2)nc2c(-c3ccc(C(N)(C(F)(F)F)C(F)(F)F)nc3)cnn2c1N` [Compound 7.84, 1-(7-amino-3-(6-(2-amino-1,1,1,3,3,3-hexafluoropropan-2-yl)pyridin-3-yl)-5-((1R,3s,5S)-8-(3-amino-1H-pyrazole-5-carbonyl)-8-azabicyclo[3.2.1]octan-3-yl)pyrazolo[1,5-a]pyrimidin-6-yl)ethanone], the IC50 was 1000 to 10000 nM in experiment [1] (Homo sapiens, PC-3, PC3 cells) and 1000 to 10000 nM in experiment [2] (Homo sapiens, PC-3, PC3 cells).

As to `CC(=O)c1c([C@@H]2C[C@H]3CC[C@@H](C2)N3C(=O)CO)nc2c(-c3ccc(-c4cc(F)cc(F)c4)nc3)cnn2c1N` [Compound 1.1.101, 1-((1R,3r,5S)-3-(6-acetyl-7-amino-3-(6-(3,5-difluorophenyl)pyridin-3-yl)pyrazolo[1,5-a]pyrimidin-5-yl)-8-azabicyclo[3.2.1]octan-8-yl)-2-hydroxyethanone], the IC50 in experiment [1] (setting [4]) and in experiment [2] (setting [4]) was 100 to 1000 nM in each case.

As for `Cc1nnc(C(=O)N2[C@@H]3CC[C@H]2C[C@H](c2nc4c(-c5ccc(-c6ccc(F)cc6)nc5)cnn4c(N)c2S(C)(=O)=O)C3)[nH]1` [Compound 3.119, ((1R,3s,5S)-3-(7-amino-3-(6-(4-fuorophenyl)pyridin-3-yl)-6-(methylsulfonyl)pyrazolo[1,5-a]pyrimidin-5-yl)-8-azabicyclo[3.2.1]octan-8-yl)(5-methyl-4H-1,2,4-triazol-3-yl)methanone], the IC50 was 1 to 100 nM in experiment [1] (Table 3-1, PC3 cells) and 1 to 100 nM in experiment [2] (Table 3-1, PC3 cells).

Turning to `CS(=O)(=O)c1c([C@@H]2C[C@H]3CC[C@@H](C2)N3C(=O)c2cc(O)ccn2)nc2c(-c3ccc(-c4ccccc4)nc3)cnn2c1N` [Compound 3.14, ((1R,3s,5S)-3-(7-amino-6-(methylsulfonyl)-3-(6-phenylpyridin-3-yl)pyrazolo[1,5-a]pyrimidin-5-yl)-8-azabicyclo[3.2.1]octan-8-yl)(4-hydroxypyridin-2-yl)methanone], the IC50 in experiment [1] (setting [5]) lay in the range of 100 to 1000 nM; in experiment [2] (setting [5]), 1000 to 10000 nM.

Consider `CC(=O)c1c([C@@H]2C[C@H]3CC[C@@H](C2)N3C(=O)c2nnc[nH]2)nc2c(-c3ccc(-c4cccc(F)c4F)nc3)cnn2c1N` [Compound 1.1.61, 1-(5-((1R,3s,5S)-8-(4H-1,2,4-triazole-3-carbonyl)-8-azabicyclo[3.2.l]octan-3-yl)-7-amino-3-(6-(2,3-difluorophenyl)pyridin-3-yl)pyrazolo[1,5-a]pyrimidin-6-yl)ethanone], for which the IC50 in experiment [1] (setting [4]) and in experiment [2] (setting [4]) was 1 to 100 nM each time.

Turning to `CC(=O)c1c([C@@H]2C[C@H]3CC[C@@H](C2)N3C(=O)c2nnc[nH]2)nc2c(-c3ccc(-n4cnc(C)c4)nc3)cnn2c1N` [Compound 1.1.128, 1-(5-((1R,3s,5S)-8-(4H-1,2,4-triazole-3-carbonyl)-8-azabicyclo[3.2.1]octan-3-yl)-7-amino-3-(6-(4-methyl-1H-imidazol-1-yl)pyridin-3-yl)pyrazolo[1,5-a]pyrimidin-6-yl)ethanone], the IC50 in experiment [1] (setting [4]) and in experiment [2] (setting [4]) was more than 10000 nM throughout.

As for `CC(=O)c1c([C@@H]2C[C@H]3CC[C@@H](C2)N3C(=O)c2nnc[nH]2)nc2c(-c3ccc(C#CCO)nc3)cnn2c1N` [Compound 8.56, 1-(5-((1R,3s,5S)-8-(4H-1,2,4-triazole-3-carbonyl)-8-azabicyclo[3.2.1]octan-3-yl)-7-amino-3-(6-(3-hydroxyprop-1-ynyl)pyridin-3-yl)pyrazolo[1,5-a]pyrimidin-6-yl)ethanone], the IC50 in experiment [1] (Homo sapiens, PC-3, PC3 cells) lay in the range of 100 to 1000 nM; in experiment [2] (Homo sapiens, PC-3, PC3 cells), 100 to 1000 nM.

Take `CS(=O)(=O)c1c([C@@H]2C[C@H]3CC[C@@H](C2)N3C(=O)c2nnc[nH]2)nc2c(-c3ccc(-c4ccc(F)cc4F)nc3)cnn2c1N` [Compound 3.108, ((1R,3s,5S)-3-(7-amino-3-(6-(2,4-difluorophenyl)pyridin-3-yl)-6-(methylsulfonyl)pyrazolo[1,5-a]pyrimidin-5-yl)-8-azabicyclo[3.2.1]octan-8-yl)(4H-1,2,4-triazol-3-yl)methanone]: the IC50 in experiment [1] (setting [5]) and in experiment [2] (setting [5]) was 1 to 100 nM each time.

For `CC(=O)c1c([C@@H]2C[C@H]3CC[C@@H](C2)N3C(=O)c2nnc(C)[nH]2)nc2c(-c3ccc(-c4ccc(F)cc4F)nc3)cnn2c1N` [Compound 1.1.165, 1-(7-amino-3-(6-(2,4-difluorophenyl)pyridin-3-yl)-5-((1R,3s,5S)-8-(5-methyl-4H-1,2,4-triazole-3-carbonyl)-8-azabicyclo[3.2.1]octan-3-yl)pyrazolo[1,5-a]pyrimidin-6-yl)ethanone], the IC50 in experiment [1] (setting [4]) and in experiment [2] (setting [4]) was 1 to 100 nM throughout.

`[2H]C([2H])([2H])n1ccc(-c2ccc(-c3cnn4c(N)c(C(C)=O)c([C@@H]5C[C@H]6CC[C@@H](C5)N6C(=O)CO)nc34)cn2)n1` [Compound 1.1.84, 1-((1R,3s,5S)-3-(6-acetyl-7-amino-3-(6-(1-methyl-(D3)-1H-pyrazol-3-yl)pyridin-3-yl)pyrazolo[1,5-a]pyrimidin-5-yl)-8-azabicyclo[3.2.1]octan-8-yl)-2-hydroxyethanone]: the IC50 in experiment [1] (setting [4]) and in experiment [2] (setting [4]) was 1 to 100 nM in each case.

In the case of `CC1(O)CCCc2cc(-c3cnn4c(N)c(C5CC5)c([C@H]5CC6CC[C@H](C5)N6C(=O)c5nnc[nH]5)nc34)cnc21` (stereo partly drawn) [Compound 7.55, ((1R,3s,5S)-3-(7-amino-6-cyclopropyl-3-(8-hydroxy-8-methyl-5,6,7,8-tetrahydroquinolin-3-yl)pyrazolo[1,5-a]pyrimidin-5-yl)-8-azabicyclo[3.2.1]octan-8-yl)(4H-1,2,4-triazol-3-yl)methanone], the IC50 in experiment [1] (Homo sapiens, PC-3, PC3 cells) is 100 to 1000 nM; in experiment [2] (Homo sapiens, PC-3, PC3 cells), 100 to 1000 nM.

With `COc1ccc(-c2ccc(-c3cnn4c(N)c(C(C)=O)c([C@@H]5C[C@H]6CC[C@@H](C5)N6C(=O)c5nnc(N)[nH]5)nc34)cn2)cc1F` [Compound 1.1.144, 1-(7-amino-5-((1R,3s,5S)-8-(5-amino-4H-1,2,4-triazole-3-carbonyl)-8-azabicyclo[3.2.1]octan-3-yl)-3-(6-(3-fluoro-4-methoxyphenyl)pyridin-3-yl)pyrazolo[1,5-a]pyrimidin-6-yl)ethanone], the IC50 in experiment [1] (setting [4]) and in experiment [2] (setting [4]) was 1 to 100 nM throughout.

As for `CC(=O)c1c([C@@H]2C[C@H]3CC[C@@H](C2)N3C(=O)c2nnc(C)[nH]2)nc2c(-c3ccc(C(C)(C)O)nc3)cnn2c1N` [Compound 7.9, 1-(7-amino-3-(6-(2-hydroxypropan-2-yl)pyridin-3-yl)-5-((1R,3s,5S)-8-(5-methyl-4H-1,2,4-triazole-3-carbonyl)-8-azabicyclo[3.2.1]octan-3-yl)pyrazolo[1,5-a]pyrimidin-6-yl)ethanone], the IC50 in experiment [1] (setting [4]) and in experiment [2] (setting [4]) was 100 to 1000 nM throughout.

Turning to `COCCOc1ccc(-c2ccc(-c3cnn4c(N)c(C(C)=O)c([C@@H]5C[C@H]6CC[C@@H](C5)N6C(=O)c5nnc[nH]5)nc34)cn2)cc1` [Compound 1.1.69, 1-(5-((1R,3s,5S)-8-(4H-1,2,4-triazole-3-carbonyl)-8-azabicyclo[3.2.1]octan-3-yl)-7-amino-3-(6-(4-(2-methoxyethoxy)phenyl)pyridin-3-yl)pyrazolo[1,5-a]pyrimidin-6-yl)ethanone], the IC50 in experiment [1] (setting [4]) and in experiment [2] (setting [4]) was 100 to 1000 nM each time.
